Data taken from ChEMBL document CHEMBL4834408, “Sesquiterpenoids from Chrysanthemum indicum with Inhibitory Effects on NO Production” (J Nat Prod, 2021).
pIC50: −log10 of the molar value.

Columns and labels:
RAW264.7 = assay: Inhibition of LPS induced NO production in mouse RAW264.7 cells measured after 24 hrs by Griess reagent based assay; type: functional, cell-based; conditions: RAW264.7, 24 h
[1] = Cytotoxicity against mouse RAW264.7 cells assessed as reduction in cell viability measured after 24 hrs by MTT assay; type: cell-based

SMILES | pIC50 (RAW264.7) | CC50 at 24 h [1] [µM]
COc1ccc([C@@H]2CC(=O)c3c(O)cc(O)cc3O2)cc1O [HESPERETIN] | 4.51 | > 100
CC1=CC[C@H]([C@](C)(O)C/C=C/C(C)(C)O)CC1=O | < 4.00 | > 100
C[C@@H]1O[C@@H](OC[C@H]2O[C@@H](Oc3cc(O)c4c(=O)cc(-c5ccc(O)c(O)c5)oc4c3)[C@H](O)[C@@H](O)[C@@H]2O)[C@H](O)[C@H](O)[C@H]1O | < 4.00 | > 100
O=C(O)[C@H]1O[C@@H](Oc2cc(O)c3c(=O)cc(-c4ccc(O)c(O)c4)oc3c2)[C@H](O)[C@@H](O)[C@@H]1O | < 4.00 | > 100
COc1ccc(-c2cc(=O)c3c(O)cc(O[C@@H]4O[C@H](C(=O)O)[C@@H](O)[C@H](O)[C@H]4O)cc3o2)cc1 | 4.03 | > 100
CC1=CC[C@H](C(C)(C)O)CC1=O | 4.31 | 98
O=c1cc(-c2ccc(O)cc2)oc2cc(O)cc(O)c12 [APIGENIN] | 4.74 | 65.1
COc1ccc(-c2cc(=O)c3c(O)cc(O)cc3o2)cc1 [ACACETIN] | 5.23 | 60.9
C=C[C@](C)(CCC/C(C)=C/C(=O)C=C(C)C)O[C@@H]1O[C@H](CO)[C@@H](O)[C@H](O)[C@H]1O | < 4.00 | > 100
COc1ccc(-c2cc(=O)c3c(O)cc(O[C@@H]4O[C@H](CO[C@@H]5O[C@@H](C)[C@H](O)[C@@H](O)[C@H]5O)[C@@H](O)[C@H](O)[C@H]4O)cc3o2)cc1 [ACACIIN] | < 4.00 | > 100
O=c1cc(-c2ccc(O)c(O)c2)oc2cc(O[C@@H]3O[C@H](CO)[C@@H](O)[C@H](O)[C@H]3O)cc(O)c12 [GALUTEOLIN] | 4.06 | > 100
C=C[C@](C)(CC/C=C(\C)CC(=O)C=C(C)C)O[C@@H]1O[C@H](CO)[C@@H](O)[C@H](O)[C@H]1O | < 4.00 | > 100
C=C[C@@](C)(O)C[C@H](O)/C=C(\C)CC(=O)C=C(C)C | 4.32 | > 100
C=C(C)C(O)CC[C@@](C)(O)[C@H]1CC=C(C)C(=O)C1 (stereo partly drawn) | < 4.00 | > 100
O=c1cc(-c2ccc(O)cc2)oc2cc(O[C@@H]3O[C@H](CO)[C@@H](O)[C@H](O)[C@H]3O)cc(O)c12 [APIGETRIN] | 4.27 | > 100
C=C1C(=O)O[C@@H]2[C@H]3C(C)=CC(=O)[C@@H]3[C@@H](C)C[C@H](OC(=O)/C(C)=C\C)[C@@H]12 | 4.57 | > 100
C=C1C(=O)O[C@@H]2/C=C(\C)CC/C=C(\C)C[C@H](OC(=O)/C(C)=C\C)[C@@H]12 | 5.00 | 27
C=C[C@](C)(CCC/C(C)=C\C(=O)C=C(C)C)O[C@@H]1O[C@H](CO)[C@@H](O)[C@H](O)[C@H]1O | 4.01 | > 100
COc1ccc(-c2cc(=O)c3c(O)cc(O)cc3o2)cc1O [DIOSMETIN] | 4.46 | –
C=C[C@](C)(CC/C=C(\C)CC(=O)CC(C)C)O[C@@H]1O[C@H](CO)[C@@H](O)[C@H](O)[C@H]1O | < 4.00 | > 100
C=C1C(=O)O[C@H]2[C@H]1[C@@H](OC(=O)C(C)CC)CC(C)=C1C[C@@H]3O[C@]3(C)[C@@H]12 (stereo partly drawn) | 5.52 | 21.5
C=C1C(=O)O[C@@H]2[C@H]3C(C)=CC(=O)[C@H]3[C@@H](C)C[C@H](OC(=O)/C(C)=C\C)[C@@H]12 | 5.74 | 22.5
CC(=O)/C=C/[C@]1(O)C(C)(C)C[C@H](O)C[C@@]1(C)O | 4.52 | > 100
CC1(C)C[C@H](O)C[C@@]2(C)OC(=O)C=C12 [LOLIOLIDE] | 4.25 | > 100
COc1ccc(-c2cc(=O)c3c(O)cc(O[C@@H]4O[C@H](CO)[C@@H](O)[C@H](O)[C@H]4O)cc3o2)cc1 [TILIANINE] | 4.34 | > 100
O=C(O)[C@H]1O[C@@H](Oc2cc(O)c3c(=O)cc(-c4ccc(O)cc4)oc3c2)[C@H](O)[C@@H](O)[C@@H]1O | < 4.00 | > 100
C=C1C(=O)O[C@H]2[C@H]1[C@@H](OC(=O)/C(C)=C\C)CC(C)=C1C[C@@H]3O[C@]3(C)[C@@H]12 | 6.70 | 21.7
